Experimental findings from article PMC7880690, “Chemical genetics and proteome-wide site mapping reveal cysteine MARylation by PARP-7 on immune-relevant protein targets” (eLife, 2021) are described below.

The target in one assay is T1, GFP-WT-PARP-7 (Homo sapiens, UniProt Q7Z3E1).
T1 construct: expressed in transfected cells; host or cells: HEK 293T
T1 sequence (Q7Z3E1 1-657): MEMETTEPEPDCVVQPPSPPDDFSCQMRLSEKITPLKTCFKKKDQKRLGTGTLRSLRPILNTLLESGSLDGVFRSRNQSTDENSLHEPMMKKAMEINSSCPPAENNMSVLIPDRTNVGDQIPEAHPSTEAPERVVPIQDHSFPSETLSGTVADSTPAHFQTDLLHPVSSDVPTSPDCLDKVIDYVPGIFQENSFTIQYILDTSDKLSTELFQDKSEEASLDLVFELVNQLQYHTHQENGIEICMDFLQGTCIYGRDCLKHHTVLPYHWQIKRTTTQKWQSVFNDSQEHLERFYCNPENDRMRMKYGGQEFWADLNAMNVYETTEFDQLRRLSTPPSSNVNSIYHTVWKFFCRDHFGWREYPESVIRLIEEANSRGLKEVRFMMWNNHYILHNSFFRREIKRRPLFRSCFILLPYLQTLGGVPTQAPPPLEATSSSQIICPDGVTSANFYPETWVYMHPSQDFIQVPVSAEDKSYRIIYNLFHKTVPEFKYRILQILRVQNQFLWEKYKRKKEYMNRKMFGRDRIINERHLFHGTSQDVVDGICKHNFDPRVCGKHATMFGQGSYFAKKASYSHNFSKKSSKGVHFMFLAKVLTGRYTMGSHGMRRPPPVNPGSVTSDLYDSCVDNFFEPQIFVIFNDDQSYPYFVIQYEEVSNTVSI
The assay is described as follows: Labeling by orthogonal NAD+ analogs in HEK 293T lysates expressing GFP-WT-PARP-7. The class given is biochemical. The note with it: HEK 293 T cell lysates, 100 µM NAD+ analog. An excerpt:
(§1) Figure 1. A chemical genetic strategy for identifying the direct MARylation targets of PARP-7. (a) Schematic of chemical genetic approach for identifying direct targets of PARP-7. (b) Crystal structure of human PARP1 bound to the non-hydrolyzable NAD^+ analog benzamide adenine dinucleotide (BAD). PDB: 6bhv. […] (c) Chemical structure of the clickable, orthogonal NAD^+ analogs. 5-Bn-2-e-NAD^+ is the optimized substrate for the floor position engineered PARP-7, IG-PARP-7. 5-Bn-6-a-NAD^+ was used in our previous studies by other floor position engineered PARPs (e.g. PARP14). (d) 5-Bn-2-e-NAD^+ is an efficient substrate for IG-PARP-7. HEK293T cells were transfected with either GFP-WT-PARP-7 (control) or GFP-IG-PARP-7. Cell lysates were prepared and incubated with either 5-Bn-2-e-NAD^+ or 5-Bn-6-a-NAD^+ (100 µM). Following copper-catalyzed click chemistry with biotin-azide, proteins were resolved by SDS-PAGE and biotinylated proteins were detected by Western blot detection using Streptavidin-HRP. Biotinylated proteins represent direct MARylation targets of PARP-7. Figure 1—figure supplement 1. Enrichment of PARP-7 MARylation targets and labeling of PARP-12 IG targets using a chemical genetic approach. (a) Labeling of PARP-7 MARylation targets was performed as described in Figure 1. Neutravidin agarose was used to enrich biotinylated proteins (i.e. MARylation targets). […]

For assay [1], the target named is T2, IG-PARP-12 (I660G PARP-12) (Homo sapiens, UniProt Q9H0J9, I660G).
T2 construct: GFP; expressed in transfected cells
In words: Labeling by orthogonal NAD+ analogs with PARP-12 I660G mutant. The class given is biochemical. The settings on record: compared to 5-Bn-6-a-NAD+.
Text: as §1

Another assay has as its target T3, PARP-7 (Homo sapiens, UniProt Q7Z3E1).
T3 sequence (Q7Z3E1 1-657): T1 sequence (Q7Z3E1 1-657)

T2 sequence (Q9H0J9 whole entry I660G): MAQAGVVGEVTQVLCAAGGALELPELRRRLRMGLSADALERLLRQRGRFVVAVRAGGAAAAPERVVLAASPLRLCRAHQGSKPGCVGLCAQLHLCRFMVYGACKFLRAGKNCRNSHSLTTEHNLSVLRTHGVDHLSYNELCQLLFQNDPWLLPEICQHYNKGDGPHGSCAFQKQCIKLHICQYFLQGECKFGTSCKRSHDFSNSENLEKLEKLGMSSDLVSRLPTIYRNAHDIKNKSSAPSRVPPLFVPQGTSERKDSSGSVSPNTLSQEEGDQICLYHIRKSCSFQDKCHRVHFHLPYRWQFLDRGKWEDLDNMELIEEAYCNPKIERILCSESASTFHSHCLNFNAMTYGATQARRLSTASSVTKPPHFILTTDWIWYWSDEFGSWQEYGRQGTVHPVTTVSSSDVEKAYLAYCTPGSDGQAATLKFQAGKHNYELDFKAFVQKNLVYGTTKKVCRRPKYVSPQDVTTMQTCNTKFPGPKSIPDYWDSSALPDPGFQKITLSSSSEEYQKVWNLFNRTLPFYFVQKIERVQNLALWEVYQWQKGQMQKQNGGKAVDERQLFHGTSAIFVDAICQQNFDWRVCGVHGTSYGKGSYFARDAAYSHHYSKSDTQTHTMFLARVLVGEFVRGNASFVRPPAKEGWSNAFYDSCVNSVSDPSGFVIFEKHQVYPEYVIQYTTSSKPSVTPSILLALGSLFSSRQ

Consider `C#Cc1nc(N)c2ncn(C3OC(COP(=O)(O)OP(=O)([O-])OCC4OC([n+]5cc(Cc6ccccc6)cc(C(N)=O)c5)C(O)C4O)C(O)C3O)c2n1` (stereo not drawn) [5-Bn-2-e-NAD^+, 5-benzyl-2-ethynyl-NAD^+], for which, on GFP-WT-PARP-7, the “substrate for GFP-WT-PARP-7” value is given as “not a substrate”. Further, in assay [1], the “substrate for IG-PARP-12” value was “better substrate”. For the compound `N#Cc1ccc(N2CCN(C(=O)c3cc(Cc4n[nH]c(=O)c5ccccc45)ccc3F)CC2)nc1` [Phthal01, 6-(4-(2-fluoro-5-((4-oxo-3,4-dihydrophthalazin-1-yl)methyl)benzoyl)piperazin-1-yl)nicotinonitrile], the EC50 (in general, the concentration that produces a half-maximal response) at PARP-7 is approximately 60 nM.
